Earlier results as cited in patent US8057823B2, “Lipid nanocapsules, preparation process and use as medicine” (Universite d'Angers, priority 2000, dated 2011).

SMILES: CS(=O)(=O)OCCCCOS(C)(=O)=O [busulfan]
- solubility in water: virtually insoluble

SMILES: CC(=O)[C@H]1CC[C@H]2[C@@H]3CCC4=CC(=O)CC[C@]4(C)[C@H]3CC[C@]12C [progesterone]
- solubility in water: virtually insoluble
